Measured values taken from patent publication US20150018546A1, “HETEROCYCLIC COMPOUND HAVING ANTI-HIV ACTIVITY” (TOYAMA CHEMICAL CO., LTD., priority 2012, published 2015).
Counter-ions that a name gives are not always drawn. Like-named read-outs stand apart in the source and are kept apart here.

Tested on: HIV-1 (JRCSF)
Assay: Anti-HIV activity in MaRBLE cells infected with HIV-1 (JRCSF), luciferase readout
Format: cell-based
Conditions: read-out: Anti-HIV activity IC50
Method: This test was conducted with reference to Journal of Clinical Microbiology, 2007, Vol. 45, p. 477-487.
The anti-HIV activity was evaluated using MaRBLE cells in which a luciferase gene to be expressed under the control of HIV-1 LTR and a CCR5 gene, etc. were introduced in human T lymphocyte-derived HPB-M(a).
A fresh medium or each appropriately diluted test compound was dispensed to 96-well plates to prepare drug solution-containing plates.
The MaRBLE cells were suspended in RPMI1640 containing 10% FCS (fetal calf serum) and penicillin/streptomycin and infected with HIV-1 (JRCSF). Then, the cells were inoculated to the drug solution-containing plates (1×10^5 cells/well). The same number of uninfected cells were inoculated as a control group to the drug solution-containing plates.
After culture at 37° C. for 7 days in a 5% CO2 atmosphere, the intracellular luciferase activity was measured using Steady-Glo Luciferase assay system (Promega Corp.).
The rate of viral proliferation was determined according to the following expression:
Rate of viral proliferation(%)=(A/B)×100
A=(Firefly luciferase activity of the compound-supplemented well)−(Firefly luciferase activity of the uninfected cells)
B=(Firefly luciferase activity of the compound-free well)−(Firefly luciferase activity of the uninfected cells)
IC50 of the compound was calculated by a plot with concentration as the logarithm and the rate of viral proliferation as the real part using the FORECAST function (linear regression method) of Microsoft Office Excel 2003.

[1] = Human immunodeficiency virus 1, 168 h, MaRBLE cells (human T lymphocyte-derived HPB-M(a)) infected with HIV-1 (JRCSF), 7 days culture, rate of viral proliferation by luciferase activity

Row | IC50 [1] [nM] | Structure (SMILES) | also measured
1 | 80 | Cc1ncnc2c1c(NCc1cccnc1)cc(=O)n2O [Example 106, 8-hydroxy-4-methyl-5-(((pyridin-3-yl)methyl)amino)pyrido[2,3-d]pyrimidin-7(8H)-one] | 
2 | 570 | O=c1cc(NCc2ccc(O)c(O)c2)c2cncnc2n1O [Example 108, 5-((3,4-dihydroxybenzyl)amino)-8-hydroxypyrido[2,3-d]pyrimidin-7(8H)-one] | 
3 | 49 | Cc1ncnc2c1c(NCc1ccc(O)cc1)cc(=O)n2O [Example 110, 8-hydroxy-5-((4-hydroxybenzyl)amino)-4-methylpyrido[2,3-d]pyrimidin-7(8H)-one] | 
4 | 8.4 | Cc1ncnc2c1c(O)c(C(=O)NCc1ccccc1)c(=O)n2O [Example 111, N-benzyl-5,8-dihydroxy-4-methyl-7-oxo-7,8-dihydropyrido[2,3-d]pyrimidine-6-carboxamide] | 
5 | 28 | Cc1ncnc2c1c(NCc1ccccc1O)cc(=O)n2O [Example 112, 8-hydroxy-5-((2-hydroxybenzyl)amino)-4-methylpyrido[2,3-d]pyrimidin-7(8H)-one] | 
6 | 73 | Cc1ncnc2c1c(NCc1ccc(O)c(O)c1)cc(=O)n2O [Example 113, 5-((3,4-dihydroxybenzyl)amino)-8-hydroxy-4-methylpyrido[2,3-d]pyrimidin-7(8H)-one] | 
7 | 42 | Cc1ncnc2c1c(NCc1cccc(O)c1)cc(=O)n2O [Example 114, 8-hydroxy-5-((3-hydroxybenzyl)amino)-4-methylpyrido[2,3-d]pyrimidin-7(8H)-one] | 
8 | 150 | O=c1cc(NCc2ccccc2)c2c(O)ncnc2n1O [Example 115, 5-(benzylamino)-4,8-dihydroxypyrido[2,3-d]pyrimidin-7(8H)-one] | 
9 | 100 | Cc1ncnc2c1c(NCc1ccccc1NS(C)(=O)=O)cc(=O)n2O [Example 122, N-(2-(((8-hydroxy-4-methyl-7-oxo-7,8-dihydropyrido[2,3-d]pyrimidin-5-yl)amino)methyl)phenyl)methanesulfonamide] | 
10 | 78 | Cc1ncnc2c1c(NCc1ccccc1N)cc(=O)n2O [Example 123, 5-((2-aminobenzyl)amino)-8-hydroxy-4-methylpyrido[2,3-d]pyrimidin-7(8H)-one] | 
11 | 58 | Cc1ncnc2c1c(NCc1cnc3ccccc3c1)cc(=O)n2O [Example 124, 8-hydroxy-4-methyl-5-(((quinolin-3-yl)methyl)amino)pyrido[2,3-d]pyrimidin-7(8H)-one] | 
12 | 63 | Cc1ncnc2c1c(NCc1ccc(N)cc1)cc(=O)n2O [Example 125, 5-((4-aminobenzyl)amino)-8-hydroxy-4-methylpyrido[2,3-d]pyrimidin-7(8H)-one] | 
13 | 140 | Cc1ncnc2c1c(NCc1cccc(NS(C)(=O)=O)c1)cc(=O)n2O [Example 126, N-(3-(((8-hydroxy-4-methyl-7-oxo-7,8-dihydropyrido[2,3-d]pyrimidin-5-yl)amino)methyl)phenyl)methanesulfonamide] | 
14 | 150 | Cc1ncnc2c1c(N)cc(=O)n2O [Example 127, 5-amino-8-hydroxy-4-methylpyrido[2,3-d]pyrimidin-7(8H)-one] | 
15 | 270 | Cc1ncnc2c1c(NCc1ccc(NS(C)(=O)=O)cc1)cc(=O)n2O [Example 128, N-(4-(((8-hydroxy-4-methyl-7-oxo-7,8-dihydropyrido[2,3-d]pyrimidin-5-yl)amino)methyl)phenyl)methanesulfonamide] | 
16 | 91 | Cc1ncnc2c1c(NCc1cccc(N)c1)cc(=O)n2O [Example 129, 5-((3-aminobenzyl)amino)-8-hydroxy-4-methylpyrido[2,3-d]pyrimidin-7(8H)-one] | 
17 | 210 | Cc1ncnc2c1c(NCc1cccc(CN)c1)cc(=O)n2O [Example 132, 5-((3-(aminomethyl)benzyl)amino)-8-hydroxy-4-methylpyrido[2,3-d]pyrimidin-7(8H)-one] | 
18 | 59 | Cc1ncnc2c1c(NCc1cnccc1C(F)(F)F)cc(=O)n2O [Example 133, 8-hydroxy-4-methyl-5-(((4-(trifluoromethyl)pyridin-3-yl)methyl)amino)pyrido[2,3-d]pyrimidin-7(8H)-one] | 
19 | 140 | Cc1ncnc2c1c(NCc1ccc(CN)cc1)cc(=O)n2O [Example 134] | 
20 | 120 | Cc1cncc(CNc2cc(=O)n(O)c3ncnc(C)c23)c1 [Example 136, 8-hydroxy-4-methyl-5-(((5-methylpyridin-3-yl)methyl)amino)pyrido[2,3-d]pyrimidin-7(8H)-one] | 

Row | IC50 [1] [nM] | Structure (SMILES) | also measured
21 | 82 | Cc1cccc(CNc2cc(=O)n(O)c3ncnc(C)c23)c1 [Example 137, 8-hydroxy-4-methyl-5-((3-methylbenzyl)amino)pyrido[2,3-d]pyrimidin-7(8H)-one] | 
22 | 94 | Cc1ncnc2c1c(NCc1ccccc1N1CCCCC1)cc(=O)n2O [Example 138, 8-hydroxy-4-methyl-5-((2-(piperidin-1-yl)benzyl)amino)pyrido[2,3-d]pyrimidin-7(8H)-one] | 
23 | 190 | Cc1ncnc2c1c(NCc1ccccc1CN)cc(=O)n2O [Example 140, 5-((2-(aminomethyl)benzyl)amino)-8-hydroxy-4-methylpyrido[2,3-d]pyrimidin-7(8H)-one] | 
24 | 46 | Cc1ncnc2c1c(NCc1cncc3ccccc13)cc(=O)n2O [Example 141, 8-hydroxy-5-(((isoquinolin-4-yl)methyl)amino)-4-methylpyrido[2,3-d]pyrimidin-7(8H)-one] | 
25 | 130 | CC(=O)Nc1ccc(CNc2cc(=O)n(O)c3ncnc(C)c23)cc1 [Example 142, N-(4-(((8-hydroxy-4-methyl-7-oxo-7,8-dihydropyrido[2,3-d]pyrimidin-5-yl)amino)methyl)phenyl)acetamide] | 
26 | 120 | Cc1ncnc2c1c(NCc1cccc(CN(C)C)c1)cc(=O)n2O [Example 143, 5-((3-((dimethylamino)methyl)benzyl)amino)-8-hydroxy-4-methylpyrido[2,3-d]pyrimidin-7(8H)-one] | 
27 | 90 | Cc1ncnc2c1c(NCc1ccc(OCCO)cc1)cc(=O)n2O [Example 144, 8-hydroxy-5-((4-(2-hydroxyethoxy)benzyl)amino)-4-methylpyrido[2,3-d]pyrimidin-7(8H)-one] | 
28 | 490 | Cc1ncnc2c1c(NCc1ccc(NS(=O)(=O)c3ccccc3)cc1)cc(=O)n2O [Example 145, N-(4-(((8-hydroxy-4-methyl-7-oxo-7,8-dihydropyrido[2,3-d]pyrimidin-5-yl)amino)methyl)phenyl)benzenesulfonamide] | 
29 |  | Cc1ncnc2c1c(NCc1ccc(Oc3ccccc3)nc1)cc(=O)n2O [Example 146, 8-hydroxy-4-methyl-5-(((6-phenoxypridin-3-yl)methyl)amino)pyrido[2,3-d]pyrimidin-7(8H)-one] | IC50 (MaRBLE cells (human T lymphocyte-derived HPB-M(a)) infected with HIV-1 (JRCSF), 7 days culture, rate of viral proliferation by luciferase activity): 100 nM
30 | 83 | Cc1ncnc2c1c(NCc1cccnc1OCC(F)(F)F)cc(=O)n2O [Example 147, 8-hydroxy-4-methyl-5-(((2-(2,2,2-trifluoroethoxy)pyridin-3-yl)methyl)amino)pyrido[2,3-d]pyrimidin-7(8H)-one] | 
31 | 71 | Cc1ncnc2c1c(NCc1ccc(C(F)(F)F)cc1)cc(=O)n2O [Example 148, 8-hydroxy-4-methyl-5-((4-(trifluoromethyl)benzyl)amino)pyrido[2,3-d]pyrimidin-7(8H)-one] | 
32 | 26 | Cc1ncnc2c1c(NCc1ccccc1C(F)(F)F)cc(=O)n2O [Example 149, 8-hydroxy-4-methyl-5-((2-(trifluoromethyl)benzyl)amino)pyrido[2,3-d]pyrimidin-7(8H)-one] | 
33 | 100 | Cc1ncnc2c1c(NCc1ccccn1)cc(=O)n2O [Example 150, 8-hydroxy-4-methyl-5-(((pyridin-2-yl)methyl)amino)pyrido[2,3-d]pyrimidin-7(8H)-one] | 
34 | 54 | Cc1ncnc2c1c(NCc1cccc(F)c1)cc(=O)n2O [Example 151, 5-((3-fluorobenzyl)amino)-8-hydroxy-4-methylpyrido[2,3-d]pyrimidin-7(8H)-one] | 
35 | 95 | Cc1ncnc2c1c(NCc1ccc(C(C)C)cc1)cc(=O)n2O [Example 152, 8-hydroxy-5-((4-isopropylbenzyl)amino)-4-methylpyrido[2,3-d]pyrimidin-7(8H)-one] | 
36 | 130 | Cc1ncnc2c1c(NCc1ccco1)cc(=O)n2O [Example 153, 5-((2-furylmethyl)amino)-8-hydroxy-4-methylpyrido[2,3-d]pyrimidin-7(8H)-one] | 
37 | 720 | Cc1ncnc2c1c(NCc1ncc[nH]1)cc(=O)n2O [Example 154, 8-hydroxy-5-(((1H-imidazol-2-yl)methyl)amino)-4-methylpyrido[2,3-d]pyrimidin-7(8H)-one] | 
38 |  | Cc1ncnc2c1c(NCCCN(C)C)cc(=O)n2O [Example 155, 5-((3-(dimethylamino)propyl)amino)-8-hydroxy-4-methylpyrido[2,3-d]pyrimidin-7(8H)-one hydrochloride] | IC50 (Human immunodeficiency virus 1, 168 h): 230 nM
39 | 590 | Cc1ncnc2c1c(NCC1CCN(C)CC1)cc(=O)n2O [Example 156, 8-hydroxy-4-methyl-5-(((1-methylpiperidin-4-yl)methyl)amino)pyrido[2,3-d]pyrimidin-7(8H)-one] | 
